Test results as given in patent US11325916B1, “Spiropyrrolidine derived antiviral agents” (priority 2021, dated 2022).
Like-named read-outs stand apart in the source and are kept apart here.

How the values were obtained:
[1] = test system: 229E human corona virus (hCoV); assay: 229E Live Virus Assay (MRC-5 cells, CPE, ATPlite readout); assay type: cell-based, hCoV-229E; details: Human coronavirus 229E, MRC5, 144 h, read-out: 229E EC50
SARS-CoV-2 3CL-protease = SARS-CoV-2 3CL-protease (Severe acute respiratory syndrome coronavirus 2 (2019-nCoV) (SARS-CoV-2), UniProt P0DTD1); assay: SARS-CoV-2 3C-Like (3CL) Protease Fluorescence Assay (FRET); assay type: biochemical
[2] = MRC-5 cells, hCoV-229E MOI 0.05, 6 days at 34° C., ATPlite, duplicate, ranges defined in μM

SMILES	EC50 [1, 2] [µM]	IC50 (SARS-CoV-2 3CL-protease) [nM]	EC50 [1] [µM]
CC(C)[C@@H](NC(=O)C(F)(F)F)C(=O)N(C)[C@@H](Cc1ccccc1)C(=O)N1C[C@]2(C[C@H]1C#N)C(=O)Nc1ccccc12 [Example 51]	0.1 to 1	< 100	
CN(C(=O)[C@H](Cc1ccc(F)cc1)N1CCOC1=O)[C@@H](CC(C)(C)C)C(=O)N1C[C@]2(C[C@H]1C#N)C(=O)Nc1ccccc12 [Example 52]		< 100	< 0.1
CN(C(=O)[C@H](Cc1ccc(F)cc1)n1cc(-c2ccccc2)nn1)[C@@H](CC(C)(C)C)C(=O)N1C[C@]2(C[C@H]1C#N)C(=O)Nc1ccccc12 [Example 54]		< 100	< 0.1
CC(C)(C)C(N)C(=O)N1CCC[C@H]1C(=O)N1C[C@]2(C[C@H]1C#N)C(=O)Nc1ccccc12 (stereo partly drawn) [Example 56]	> 1	> 1000	
CC(C)(C)C(NS(=O)(=O)c1ccccc1)C(=O)N1CCC[C@H]1C(=O)N1C[C@]2(C[C@H]1C#N)C(=O)Nc1ccccc12 (stereo partly drawn) [Example 57]		> 1000	> 1
CC(C)(C)C(NC(=O)c1ccc(F)cc1)C(=O)N1CCC[C@H]1C(=O)N1C[C@]2(C[C@H]1C#N)C(=O)Nc1ccccc12 (stereo partly drawn) [Example 58]		> 1000	> 1
CC(C)OC(=O)NC(C(=O)N1CCC[C@H]1C(=O)N1C[C@]2(C[C@H]1C#N)C(=O)Nc1ccccc12)C(C)(C)C (stereo partly drawn) [Example 59]		> 1000	> 1
CC(C)(C)C(NC(=O)NCc1ccccc1)C(=O)N1CCC[C@H]1C(=O)N1C[C@]2(C[C@H]1C#N)C(=O)Nc1ccccc12 (stereo partly drawn) [Example 60]		> 1000	> 1
CC(C)(C)C(NCc1cc(F)c(F)cc1F)C(=O)N1CCC[C@H]1C(=O)N1C[C@]2(C[C@H]1C#N)C(=O)Nc1ccccc12 (stereo partly drawn) [Example 61]		> 1000	> 1
CC(C)(C)C[C@H](NC(=O)[C@H](Cc1ccc(F)cc1)NC(=O)OCc1ccccc1)C(=O)N1C[C@]2(C[C@H]1C#N)C(=O)Nc1ccccc12 [Example 62]		< 100	> 1
CC(C)(C)C[C@H](NC(=O)[C@H](Cc1ccc(F)cc1)NC(=O)C(F)(F)F)C(=O)N1C[C@]2(C[C@H]1C#N)C(=O)Nc1ccccc12 [Example 63]	< 0.1	< 100	
CN(C(=O)[C@H](Cc1ccc(F)cc1)NC(=O)C1CCC1)[C@@H](CC(C)(C)C)C(=O)N1C[C@]2(C[C@H]1C#N)C(=O)Nc1ccccc12 [Example 64]		< 100	< 0.1
CN(C(=O)[C@H](Cc1ccc(F)cc1)NC(=O)C1COC1)[C@@H](CC(C)(C)C)C(=O)N1C[C@]2(C[C@H]1C#N)C(=O)Nc1ccccc12 [Example 65]		< 100	< 0.1
CN(C(=O)[C@H](Cc1ccc(F)cc1)NS(=O)(=O)C1CC1)[C@@H](CC(C)(C)C)C(=O)N1C[C@]2(C[C@H]1C#N)C(=O)Nc1ccccc12 [Example 66]		< 100	< 0.1
CN(C(=O)[C@H](Cc1ccc(F)cc1)N1CCCC1=O)[C@@H](CC(C)(C)C)C(=O)N1C[C@]2(C[C@H]1C#N)C(=O)Nc1ccccc12 [Example 67]		< 100	< 0.1
CN(C(=O)[C@H](Cc1ccc(F)cc1)NC(=O)N1CCOCC1)[C@@H](CC(C)(C)C)C(=O)N1C[C@]2(C[C@H]1C#N)C(=O)Nc1ccccc12 [Example 68]		< 100	< 0.1
CN(C(=O)[C@H](Cc1ccc(F)cc1)N1CCCNC1=O)[C@@H](CC(C)(C)C)C(=O)N1C[C@]2(C[C@H]1C#N)C(=O)Nc1ccccc12 [Example 69]		< 100	0.1 to 1
CN(C(=O)[C@H](CC1CC1)NS(=O)(=O)c1ccn(-c2ccc(F)cc2)n1)[C@@H](CC(C)(C)C)C(=O)N1C[C@]2(C[C@H]1C#N)C(=O)Nc1ccccc12 [Example 70]		< 100	< 0.1
CN(C(=O)[C@H](CC1CC1)N1CCOC1=O)[C@@H](CC(C)(C)C)C(=O)N1C[C@]2(C[C@H]1C#N)C(=O)Nc1ccccc12 [Example 72]		< 100	< 0.1
[2H]C([2H])([2H])N(C(=O)[C@H](CC1CC1)NC(C)=O)[C@@H](Cc1ccc(F)cc1)C(=O)N1C[C@]2(C[C@H]1C#N)C(=O)Nc1ccccc12 [Example 73]		< 100	< 0.1
[2H]C([2H])([2H])N(C(=O)[C@H](CC1CC1)NC(=O)C(F)(F)F)[C@@H](Cc1ccc(F)cc1)C(=O)N1C[C@]2(C[C@H]1C#N)C(=O)Nc1ccccc12 [Example 74]		< 100	< 0.1

SMILES	EC50 [1, 2] [µM]	IC50 (SARS-CoV-2 3CL-protease) [nM]	EC50 [1] [µM]
CN(C(=O)[C@H](CC1CC1)NC(=O)C(F)(F)F)[C@@H](CC(C)(C)C)C(=O)N1C[C@]2(C[C@H]1C#N)C(=O)Nc1ccccc12 [Example 75]		< 100	< 0.1
CN(C(=O)[C@H](CC1CC1)NC(=O)C1CC1)[C@@H](CC(C)(C)C)C(=O)N1C[C@]2(C[C@H]1C#N)C(=O)Nc1ccccc12 [Example 76]		< 100	< 0.1
[2H]C([2H])([2H])N(C(=O)[C@H](CC1CC1)NC(=O)C1COC1)[C@@H](Cc1ccc(F)cc1)C(=O)N1C[C@]2(C[C@H]1C#N)C(=O)Nc1ccccc12 [Example 77]		< 100	0.1 to 1
CC(=O)N[C@@H](CC1CC1)C(=O)N(C)[C@@H](CC(C)(C)C)C(=O)N1C[C@]2(C[C@H]1C#N)C(=O)Nc1ccccc12 [Example 78]		< 100	< 0.1
CC(C)C(=O)N[C@@H](CC1CC1)C(=O)N(C)[C@@H](CC(C)(C)C)C(=O)N1C[C@]2(C[C@H]1C#N)C(=O)Nc1ccccc12 [Example 80]		< 100	< 0.1
CN(C(=O)[C@H](CC1CC1)NS(C)(=O)=O)[C@@H](CC(C)(C)C)C(=O)N1C[C@]2(C[C@H]1C#N)C(=O)Nc1ccccc12 [Example 81]		< 100	< 0.1
CN(C(=O)[C@H](CC1CC1)NS(=O)(=O)C1CC1)[C@@H](CC(C)(C)C)C(=O)N1C[C@]2(C[C@H]1C#N)C(=O)Nc1ccccc12 [Example 82]		< 100	< 0.1
CN(C(=O)[C@H](CC1CC1)NC(=O)N1CCOCC1)[C@@H](CC(C)(C)C)C(=O)N1C[C@]2(C[C@H]1C#N)C(=O)Nc1ccccc12 [Example 83]		< 100	< 0.1
CN(C(=O)[C@H](CC1CC1)NC(=O)NC1CC1)[C@@H](CC(C)(C)C)C(=O)N1C[C@]2(C[C@H]1C#N)C(=O)Nc1ccccc12 [Example 85]		< 100	< 0.1
CC(C)[C@H](NC(=O)OCc1ccccc1)C(=O)N[C@@H](CC(C)(C)C)C(=O)N1C[C@]2(C[C@H]1C#N)C(=O)Nc1ccccc12 [Example 86]		< 100	0.1 to 1
CC(=O)N[C@H](C(=O)N[C@@H](CC(C)(C)C)C(=O)N1C[C@]2(C[C@H]1C#N)C(=O)Nc1ccccc12)C(C)C [Example 88]		100 to 1000	0.1 to 1
CC(=O)N[C@@H](C(=O)N[C@@H](CC(C)(C)C)C(=O)N1C[C@]2(C[C@H]1C#N)C(=O)Nc1ccccc12)C(C)C [Example 89]		100 to 1000	0.1 to 1
CC(C)[C@H](NC(=O)C(F)(F)F)C(=O)N[C@@H](CC(C)(C)C)C(=O)N1C[C@]2(C[C@H]1C#N)C(=O)Nc1ccccc12 [Example 90]		< 100	0.1 to 1
CC(C)[C@@H](NC(=O)C(F)(F)F)C(=O)N[C@@H](CC(C)(C)C)C(=O)N1C[C@]2(C[C@H]1C#N)C(=O)Nc1ccccc12 [Example 91]		100 to 1000	0.1 to 1
CC(C)[C@H](NC(=O)c1cc2c(F)cc(F)c(F)c2[nH]1)C(=O)N[C@@H](CC(C)(C)C)C(=O)N1C[C@]2(C[C@H]1C#N)C(=O)Nc1ccccc12 [Example 92]		< 100	0.1 to 1
CC(C)[C@@H](NC(=O)c1cc2c(F)cc(F)c(F)c2[nH]1)C(=O)N[C@@H](CC(C)(C)C)C(=O)N1C[C@]2(C[C@H]1C#N)C(=O)Nc1ccccc12 [Example 93]		> 1000	> 1
CC(C)(C)C[C@H](NC(=O)[C@H](CC1CC1)NC(=O)OCc1ccccc1)C(=O)N1C[C@]2(C[C@H]1C#N)C(=O)Nc1ccccc12 [Example 94]		< 100	< 0.1
CC(C)[C@H](NC(=O)c1ccc(F)c(F)c1)C(=O)N(C)[C@@H](CC(C)(C)C)C(=O)N1C[C@]2(C[C@H]1C#N)C(=O)Nc1ccccc12 [Example 107]		< 100	0.1 to 1
CC(C)[C@H](NC(=O)c1cc(F)c(F)c(F)c1)C(=O)N(C)[C@@H](CC(C)(C)C)C(=O)N1C[C@]2(C[C@H]1C#N)C(=O)Nc1ccccc12 [Example 108]		< 100	0.1 to 1
CC(C)[C@H](NC(=O)c1ccc2c(F)cc(F)cc2n1)C(=O)N(C)[C@@H](CC(C)(C)C)C(=O)N1C[C@]2(C[C@H]1C#N)C(=O)Nc1ccccc12 [Example 109]		< 100	0.1 to 1
CC(C)[C@H](NC(=O)OCC1(c2ccccc2)CC1)C(=O)N(C)[C@@H](CC(C)(C)C)C(=O)N1C[C@]2(C[C@H]1C#N)C(=O)Nc1ccccc12 [Example 110]		< 100	0.1 to 1
